Measured values taken from ChEMBL document CHEMBL4364273, “Discovery of SHR1653, a Highly Potent and Selective OTR Antagonist with Improved Blood-Brain Barrier Penetration” (ACS Med Chem Lett, 2019).
In brackets after ≈: the same amount, converted by molar mass.

Assays:
[1] = Half-life in Beagle dog at 2 mg/kg, po measured for 24 hrs by LC-MS/MS analysis; assay type: ADME, organism-based, Canis lupus familiaris; details: in vivo
[2] = molecular target: T1, Cytochrome P450 3A4 (Homo sapiens, UniProt P08684); test: Inhibition of human recombinant CYP3A4 using midazolam as substrate; assay type: ADME
[3] = molecular target: T1, Cytochrome P450 3A4; test: Inhibition of human recombinant CYP3A4 using testosterone as substrate; assay type: ADME
[4] = species on record: Homo sapiens; test: Selectivity ratio of IC50 for human vasopressin V2 receptor expressed in HEK293 cells to IC50 for human OTR expressed in HEK293 cells; assay type: cell-based
[5] = Unbound fraction in Sprague-Dawley rat plasma by LC-MS/MS analysis; assay type: ADME, cell-free
[6] = molecular target: Cytochrome P450 2C19 (Homo sapiens, UniProt P33261); test: Inhibition of human recombinant CYP2C19; assay type: ADME
[7] = AUC (0 to 24 hrs) in Sprague-Dawley rat at 2 mg/kg, po by LC-MS/MS analysis; assay type: ADME, organism-based; design: time < 24 hr, dose 2 mg/kg, route oral; details: in vivo
[8] = Cmax in nude mouse at 4 mg/kg, po measured for 24 hrs by LC-MS/MS analysis; assay type: ADME, organism-based; design: dose 4 mg/kg, route oral; details: in vivo
[9] = Hepatic clearance in rat liver microsomes by LC-MS/MS analysis; assay type: ADME, Microsome
[10] = AUC (0 to 24 hrs) in Beagle dog at 20 mg/kg, po by LC-MS/MS analysis; assay type: ADME, organism-based, Canis lupus familiaris; design: time < 24 hr, dose 20 mg/kg, route oral; details: in vivo
[11] = Solubility of compound in FASSIF at pH 6.5; assay type: physicochemical
[12] = Half-life in nude mouse at 4 mg/kg, po measured for 24 hrs by LC-MS/MS analysis; assay type: ADME, organism-based; details: in vivo
[13] = Tmax in nude mouse at 4 mg/kg, po measured for 24 hrs by LC-MS/MS analysis; assay type: ADME, organism-based; details: in vivo
[14] = Clearance in nude mouse at 1 mg/kg, iv measured for 24 hrs by LC-MS/MS analysis; assay type: ADME, organism-based; details: in vivo
[15] = Unbound brain-to-plasma concentration ratio in Sprague-Dawley rat by LC-MS/MS analysis; assay type: ADME, cell-free; details: read-out: K(p,uu,brain)
[16] = Protein binding in human plasma; assay type: ADME, cell-free; details: read-out: PPB (converted)
[17] = molecular target: Cytochrome P450 2D6 (Homo sapiens, UniProt P10635); test: Inhibition of human recombinant CYP2D6; assay type: ADME
[18] = Cmax in Beagle dog at 2 mg/kg, po measured for 24 hrs by LC-MS/MS analysis; assay type: ADME, organism-based, Canis lupus familiaris; design: dose 2 mg/kg, route oral; details: in vivo
[19] = system: Rattus norvegicus; test: Anti-premature ejaculation activity in anesthetized oxytocin-induced uterine contraction Sprague-Dawley rat model assessed as decrease in intraluminal uterine pressure at 10 mg/kg, po treated for 20 mins and 1 hr later treated with oxytocin and measured for 15 to 30 mins relative to control; assay type: functional
[20] = Drug concentration in Sprague-Dawley rat brain by LC-MS/MS analysis; assay type: ADME, tissue-based; details: in vivo
[21] = Tmax in Beagle dog at 20 mg/kg, po measured for 24 hrs by LC-MS/MS analysis; assay type: ADME, organism-based, Canis lupus familiaris; details: in vivo
[22] = AUC (0 to 24 hrs) in Sprague-Dawley rat at 150 mg/kg, po by LC-MS/MS analysis; assay type: ADME, organism-based; design: time < 24 hr, dose 150 mg/kg, route oral; details: in vivo
[23] = Tmax in Sprague-Dawley rat at 150 mg/kg, po measured for 24 hrs by LC-MS/MS analysis; assay type: ADME, organism-based; details: in vivo
[24] = Plasma concentration in Sprague-Dawley rat by LC-MS/MS analysis; assay type: ADME, cell-free
[25] = system: Rattus norvegicus; test: Anti-premature ejaculation activity in anesthetized oxytocin-induced uterine contraction Sprague-Dawley rat model assessed as decrease in intraluminal uterine pressure at 100 mg/kg, po treated for 20 mins and 1 hr later treated with oxytocin and measured for 15 to 30 mins relative to control; assay type: functional

T1 sequence (P08684 whole entry): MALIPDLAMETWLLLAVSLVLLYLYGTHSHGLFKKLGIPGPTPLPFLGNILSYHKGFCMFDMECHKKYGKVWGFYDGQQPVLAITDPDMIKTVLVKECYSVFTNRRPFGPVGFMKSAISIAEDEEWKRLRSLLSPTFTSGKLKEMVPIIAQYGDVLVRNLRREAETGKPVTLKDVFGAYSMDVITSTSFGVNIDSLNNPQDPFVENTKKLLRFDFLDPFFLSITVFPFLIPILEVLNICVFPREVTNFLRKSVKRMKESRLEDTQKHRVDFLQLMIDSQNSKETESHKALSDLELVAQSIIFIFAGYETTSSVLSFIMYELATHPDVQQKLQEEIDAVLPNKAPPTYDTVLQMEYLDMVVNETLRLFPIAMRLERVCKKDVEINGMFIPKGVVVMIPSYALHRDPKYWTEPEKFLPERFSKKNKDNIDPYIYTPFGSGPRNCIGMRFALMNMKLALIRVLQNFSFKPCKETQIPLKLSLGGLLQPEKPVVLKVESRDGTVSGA
Sequence of Cytochrome P450 2C19 (P33261 whole entry): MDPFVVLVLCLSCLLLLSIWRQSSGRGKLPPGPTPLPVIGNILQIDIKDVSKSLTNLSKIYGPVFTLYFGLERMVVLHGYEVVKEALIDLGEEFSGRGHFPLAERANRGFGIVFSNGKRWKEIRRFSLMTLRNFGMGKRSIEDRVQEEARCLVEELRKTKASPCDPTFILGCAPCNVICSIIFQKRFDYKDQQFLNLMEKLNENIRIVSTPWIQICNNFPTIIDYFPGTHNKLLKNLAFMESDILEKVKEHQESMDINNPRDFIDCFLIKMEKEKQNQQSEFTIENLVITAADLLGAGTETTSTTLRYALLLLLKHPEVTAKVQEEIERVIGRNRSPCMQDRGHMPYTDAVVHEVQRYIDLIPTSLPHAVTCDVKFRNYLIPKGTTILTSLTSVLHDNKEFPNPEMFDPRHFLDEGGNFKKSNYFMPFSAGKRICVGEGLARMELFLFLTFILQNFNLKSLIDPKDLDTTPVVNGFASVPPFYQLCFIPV
Sequence of Cytochrome P450 2D6 (P10635 whole entry): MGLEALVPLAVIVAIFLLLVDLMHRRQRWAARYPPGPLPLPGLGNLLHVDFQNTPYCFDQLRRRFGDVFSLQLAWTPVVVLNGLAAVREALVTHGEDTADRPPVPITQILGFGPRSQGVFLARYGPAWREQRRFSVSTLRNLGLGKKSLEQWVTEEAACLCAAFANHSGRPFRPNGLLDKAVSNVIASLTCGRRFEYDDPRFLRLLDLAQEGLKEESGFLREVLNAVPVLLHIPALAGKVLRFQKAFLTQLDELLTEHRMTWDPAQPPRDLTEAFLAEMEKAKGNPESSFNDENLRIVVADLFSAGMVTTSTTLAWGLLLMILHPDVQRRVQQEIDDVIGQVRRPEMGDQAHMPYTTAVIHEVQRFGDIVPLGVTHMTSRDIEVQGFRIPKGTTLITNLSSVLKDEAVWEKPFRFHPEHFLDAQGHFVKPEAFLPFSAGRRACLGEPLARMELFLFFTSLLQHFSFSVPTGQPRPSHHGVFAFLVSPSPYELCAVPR

With COCc1nnc(N2C[C@@H]3C[C@]3(c3ccc(F)cc3Cl)C2)n1-c1ccc(OC)nc1 the half-life [1] was 278 min, the IC50 [2] was greater than 30 µM and the IC50 [3] was 20 µM. It also gave a Ratio IC50 [4] of 2170, a fraction unbound [5] of 0.0146 and an IC50 [6] of 11 µM. The AUC(0-t) at 24 h [7] was 1680 ng·h/mL, the Cmax [8] was 330 ng/mL and the CLhep predicted [9] was 54.9 mL/min/kg. For the same compound, the AUC(0-t) at 24 h [10] was 58700 ng·h/mL, the solubility [11] was 108 µM (≈ 46.2 µg/mL) and the half-life [12] was 114 min. The Tmax [13] was 30 min, the clearance [14] was 31.3 mL/min/kg and the Kp uu [15] was 0.188. It also gave a fraction unbound [16] of 0.0352, an IC50 [17] greater than 30 µM and a Cmax [18] of 930 ng/mL. It also gave an inhibition in vivo at 10 mg/kg [19] of 17.6%, a Ct [20] of 229 ng/g and a Tmax [21] of 52.8 min. It also gave an AUC(0-t) at 24 h [22] of 57200 ng·h/mL, a Tmax [23] of 40.2 min and a Cp [24] of 1379 ng/mL. It also gave an inhibition in vivo at 100 mg/kg [25] of 77.5%.
